In publication PMC3880013, “Toward an Understanding of Agonist Binding to Human Orexin-1 and Orexin-2 Receptors with G-Protein-Coupled Receptor Modeling and Site-Directed Mutagenesis” (Biochemistry, 2013):
Read-outs that look alike come from different tables or passages of the source. Marks after values point to notes of the source that are not given here. Where no end group is shown, it is not given here.

Key:
[1] = system: hOX2 D211A; set-up: method as in earlier work; conditions: hOX2 D211A (45.51) relative to wild type, [Ca2+]i response, ref 37 Malherbe et al., cited from earlier work
[2] = system: hOX2 F227W; assay: Calcium flux assay, CHO-K1 cells stably expressing Orexin receptor mutant; type: cell-based, human; conditions: hOX2 F227W (5.42) relative to wild type, CHO-K1, Fluo-4AM, this work
Protocol: (§1) A combination of overlap and mismatch polymerase chain reaction (PCR) was used to introduce mutations into the corresponding Orexin-1 and Orexin-2 cDNAs as described by us previously.[62] Each mutation was made via the generation of two overlapping PCR fragments with PfuUltra II Fusion HS DNA Polymerase (Strategene). The two products were extracted, and a second round of PCR was performed via combination of both fragments with 5′ and 3′ gene specific primers (containing BamHI and NotI restriction sites, respectively). The resulting gel-purified products were then cloned into expression vector pFB-Neo for subsequent generation of stable cell lines. Constructs were confirmed via sequencing. Each verified cDNA was subsequently used to generate single, stably expressing clones in the CHO-K1 cell line.
(§2) Standard calcium flux assays were used to assess the functionality of each OX receptor mutant. Each CHO-K1 Orexin mutant was seeded into tissue culture-treated, 384-well, black clear-bottom plates (CellBind Corning 7086), at a density of 7500 cells/well in culture medium and maintained in an incubator (5% CO2 at 37 °C) overnight. The cell medium was removed, and the cells were incubated in 20 μL of assay buffer (4 μM Fluo-4AM in HBSS with 0.1% BSA) for 90 min at 37 °C. After incubation, the dye was removed and 45 μL of fresh buffer, without dye, was applied. Antagonists (5 μL) were applied, and after incubation for an additional 20 min at 37 °C, 20 μL of receptor specific agonists was applied and the calcium flux monitored using a Flex Station (Molecular Devices) over a period of 1 min. In all cases, the EC80 specific for the individual mutant as determined in previous experiments was reported.

[3] = system: hOX2 Q187A; assay: as above; type: cell-based, human; conditions: hOX2 Q187A (4.60) relative to wild type, CHO-K1, Fluo-4AM, this work
Protocol: as §1, §2

[4] = system: hOX1 Q179A; assay: as above; type: cell-based, human; conditions: hOX1 Q179A (4.60) vs wild type, CHO-K1, Fluo-4AM, this work
Protocol: as §1, §2

[5] = system: hOX2 Q134A; assay: as above; type: cell-based, human; conditions: hOX2 Q134A (3.32) relative to wild type, CHO-K1, Fluo-4AM, this work
Protocol: as §1, §2

[6] = system: hOX1 Y311F; assay: as above; type: cell-based, human; conditions: hOX1 Y311F (6.48) relative to wild type, CHO-K1, Fluo-4AM, this work
Protocol: as §1, §2

[7] = system: hOX2 I320A; conditions: hOX2 I320A (6.51) relative to wild type; [Ca2+]i response; ref 37 Malherbe et al.; cited from earlier work
From the text: (§3) Table 1 Comparison of the Effects of Different Mutations in hOX1 and hOX2 on the Binding Potencies of Orexin-A and Orexin-B ^a | column: hOX2 / ratio ^b of Orexin-A

[8] = system: hOX2 V353A; conditions: hOX2 V353A (7.42) relative to wild type; [Ca2+]i response; ref 37 Malherbe et al.; cited from earlier work
From the text: as §3

[9] = system: hOX2 H350A; conditions: cited from earlier work; for ratio EC50(mut)/EC50(WT): hOX2 H350A (7.39) relative to wild type, [Ca2+]i response, ref 37 Malherbe et al.
From the text: We observed that in OX1, H^7.39 interacts with residues L16 and L20 of helix 1 of OxA (see Figure 6A). […] On the other hand, in OX2, H^7.39 interacts with L20 and not with L16 (see Figure 6B), and ...

[10] = system: hOX2 F346A; set-up: method as in earlier work; conditions: hOX2 F346A (7.35) relative to wild type, [Ca2+]i response, ref 37 Malherbe et al., cited from earlier work
[11] = system: hOX1 H344A; conditions: cited from earlier work; for ratio EC50(mut)/EC50(WT): hOX1 H344A (7.39) relative to wild type, [Ca2+]i response, ref 37 Malherbe et al.
From the text: Other mutations had no major effect on efficacy. || An additional residue that plays a key role in OX receptor agonist binding and activation by Orexin peptides is H^7.39. […] We observed that in OX1, H^7.39 interacts with residues L16 and L20 of helix 1 of OxA (see Figure 6A). […] On the other hand, in OX2, H^7.39 interacts with L20 and not with L16 (see Figure 6B), and ...

[12] = system: hOX2 Y223A; set-up: method as in earlier work; conditions: hOX2 Y223A (5.38) relative to wild type, [Ca2+]i response, ref 37 Malherbe et al., cited from earlier work
[13] = system: hOX2 F227A; conditions: cited from earlier work; for ratio EC50(mut)/EC50(WT): hOX2 F227A (5.42) relative to wild type, [Ca2+]i response, ref 37 Malherbe et al.
From the text: In the case of OX1, F^5.42 interacts with H26 of OxA that, based on the SDM experiments, has an only moderate impact on potency (see Figure 6A). This is in contrast to OX2 in which F^5.42 interacts with key residue I30 (see Figure 6B). Mutation of I30 of OxA to alanine complet ...

[14] = system: hOX2 W214A; set-up: method as in earlier work; conditions: hOX2 W214A (45.54) relative to wild type, [Ca2+]i response, ref 37 Malherbe et al., cited from earlier work

## Orexin-A (QPLPDCCRQKTCSCRLYELLHGAGNHAAGILTL; ends and bridges not checked; cysteine pairing not given here; UniProt O43612 34-66, looked up) [hypothalamic neuropeptide, 33 amino acids, two intramolecular disulfide bonds C6-C12 and C7-C14; natural OX1/OX2 agonist]
[1]
  ratio EC50(mut)/EC50(WT): 416.1 ^c fold
[1]; listed as OxA
  ratio EC50(mut)/EC50(WT): 416.1 fold
[2]
  ratio EC50(mut)/EC50(WT): 84.2 ^d fold
[3]
  ratio EC50(mut)/EC50(WT): 1.3 ^d fold
[4]
  fold improvement in potency relative to wild type: 17.8 fold improvement
[5]
  ratio EC50(mut)/EC50(WT): 15.1 fold
[6]
  ratio EC50(mut)/EC50(WT): 1.6 ^d fold
[7]
  ratio EC50(mut)/EC50(WT): 0.9 ^c fold
[8]
  ratio EC50(mut)/EC50(WT): 1.9 ^c fold
[9]; OX2 H7.39 (H350) mutated to alanine
  decrease in Emax: 63.0%
[9]
  ratio EC50(mut)/EC50(WT): 49.5 ^c fold
[9]; listed as OxA
  ratio EC50(mut)/EC50(WT): 49.5 fold
[10]
  ratio EC50(mut)/EC50(WT): 54.5 ^c fold
[10]; listed as OxA
  ratio EC50(mut)/EC50(WT): 54.5 fold
[11]; OX1 H7.39 (H344) mutated to alanine
  decrease in Emax: 64.5%
[11]
  ratio EC50(mut)/EC50(WT): 241.1 ^c fold
[11]; listed as OxA
  ratio EC50(mut)/EC50(WT): 241.1 fold
[12]
  ratio EC50(mut)/EC50(WT): 183.9 ^c fold
[12]; listed as OxA
  ratio EC50(mut)/EC50(WT): 183.9 fold
[13]; hOX2 F5.42 (F227) mutated to alanine
  efficacy (reduced to): 64.3%
[13]
  ratio EC50(mut)/EC50(WT): 240.3 ^c fold
[13]; listed as OxA
  ratio EC50(mut)/EC50(WT): 240.3 fold
[14]
  ratio EC50(mut)/EC50(WT): 62.4 ^c fold
[14]; listed as OxA
  ratio EC50(mut)/EC50(WT): 62.4 fold
